Measurements: patent US20240228468A1, “N-(6-((OCTAHYDROCYCLOPENTA[C]PYRROL-5-YI)AMINO)PYRIDAZIN-3-YL)PHENYL)CARBOXAMIDE AND (6- ((OCTAHYDROCYCLOPENTA[C]PYRROL-5-YL)AMINO)PYRIDAZIN-3-YL)BENZAMIDE DERIVATIVES AS MACHR M4 ANTAGONISTS FOR THE TREATMENT OF NEURODEGENERATIVE DISORDERS” (Vanderbilt University, priority 2021, published 2024)
Like-named read-outs stand apart in the source and are kept apart here.

Molecular target: T1, Human M4 (Homo sapiens, UniProt P08173)
T1 construct: expressed in transfected cells; host or cells: CHO-K1 (ATCC), co-transfected with chimeric G protein Gqi5
T1 sequence (P08173 1-479): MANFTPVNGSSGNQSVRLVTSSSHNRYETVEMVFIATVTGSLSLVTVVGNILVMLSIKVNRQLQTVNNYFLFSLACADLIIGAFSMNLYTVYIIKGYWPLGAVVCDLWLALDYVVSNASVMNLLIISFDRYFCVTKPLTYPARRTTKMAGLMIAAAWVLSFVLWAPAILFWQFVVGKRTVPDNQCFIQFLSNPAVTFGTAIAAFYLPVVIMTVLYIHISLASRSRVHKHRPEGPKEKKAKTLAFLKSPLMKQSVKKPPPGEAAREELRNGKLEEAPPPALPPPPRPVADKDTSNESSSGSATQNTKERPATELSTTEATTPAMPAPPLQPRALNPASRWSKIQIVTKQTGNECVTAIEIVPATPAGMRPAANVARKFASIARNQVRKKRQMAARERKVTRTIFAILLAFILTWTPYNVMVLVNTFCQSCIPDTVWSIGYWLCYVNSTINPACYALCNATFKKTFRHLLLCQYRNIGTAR
Test: mAChR M4 cell-based functional assay (calcium flux, antagonism of EC80 acetylcholine response)
Settings: for IC50: concentration-dependent decrease of the response elicited by an EC80 concentration of acetylcholine
Experimental: Human or rat M4 cDNA, along with the chimeric G protein Gqi5, were transfected into Chinese hamster ovary (CHO-K1) cells purchased from the American Type Culture Collection using Lipofectamine2000. M4/Gqi5/CHO cells were grown in Ham's F-12 medium containing 10% heat-inactivated fetal bovine serum (FBS), 20 mM HEPES, 500 μg/mL G418 sulfate, and 200 μg/mL Hygromycin B.
For high throughput measurement of agonist-evoked increases in intracellular calcium, CHO-K1 cells stably expressing muscarinic receptors were plated in growth medium lacking G418 and hygromycin at 15,000 cells/20 μL/well in Greiner 384-well black-walled, tissue culture (TC)-treated, clear-bottom plates (VWR). Cells were incubated overnight at 37° C. and 5% CO2. The next day, cells were washed using an ELX 405 (BioTek) with assay buffer; the final volume was then aspirated to 20 μL. Next, 20 μL of a 2.3 μM stock of Fluo-4/acetoxymethyl ester (Invitrogen, Carlsbad, CA), prepared as a 2.3 mM stock in DMSO and mixed in a 1:1 ratio with 10% (w/v) Pluronic F-127 and diluted in assay buffer, was added to the wells and the cell plates were incubated for 50 min at 37° C. and 5% CO2. Dye was removed by washing with the ELX 405 and the final volume was aspirated to 20 μL. Compound master plates were formatted in a 10 point concentration-response curve (CRC) format (1:3 dilutions) in 100% DMSO with a starting concentration of 10 or 1 mM using a BRAVO liquid handler (Agilent). Test compound CRCs were then transferred to daughter plates (240 nL) using the Echo acoustic plate reformatter (Labcyte, Sunnyvale, CA) and then diluted into assay buffer (40 μL) to a 2× stock using a Thermo Fisher Combi (Thermo Fisher Scientific, Waltham, MA).
Calcium flux was measured using the Functional Drug Screening System (FDSS) 6000 or 7000 (Hamamatsu Corporation, Tokyo, Japan) as an increase in the fluorescent static ratio. Compounds were applied to cells (20 μL, 2×) using the automated system of the FDSS at 2 seconds into the protocol and the data were collected at 1 Hz. At 143 s, 10 μL of an EC20 concentration of the muscarinic receptor agonist acetylcholine was added (5×), followed by the addition of 12 μL of an EC80 concentration of acetylcholine at the 268 s time point (5×). Agonist activity was analyzed as a concentration-dependent increase in calcium mobilization upon compound addition. Positive allosteric modulator activity was analyzed as a concentration-dependent increase in the EC20 acetylcholine response. Antagonist activity was analyzed as a concentration-dependent decrease in the EC80 acetylcholine response; for the purposes of the tables herein, an IC50 (inhibitory concentration 50) was calculated as a concentration-dependent decrease of the response elicited by an EC80 concentration of acetylcholine. Concentration-response curves were generated using a four-parameter logistical equation in XLFit curve fitting software (IDBS, Bridgewater, NJ) for Excel (Microsoft, Redmond, WA) or Prism (GraphPad Software, Inc., San Diego, CA) or the Dotmatics software platform (Dotmatics, Bishop's Stortford, UK).
Compounds were synthesized as described above. Activity (IC50 and Emin) was determined in the mAChR M4 cell-based functional assay as described above and the data are shown in Table 2.

[1] = M4/Gqi5/CHO-K1 cells, % ACh maximum at 30 μM, read-out: Human M4 Emin (% ACh maximum at 30 μM)
[2] = CHO-K1, read-out: Human M4 Emin (% ACh maximum at 30 μM)

SMILES | remaining activity at 30 µM [1] | IC50 (M4/Gqi5/CHO-K1 cells) | remaining activity at 30 µM [2]
[2H]C([2H])([2H])C(=O)Nc1cccc(-c2ccc(N[C@H]3C[C@@H]4CN(C([2H])([2H])C5CCOCC5)C[C@@H]4C3)nn2)c1 [Compound A62, N-(3-(6-(((3aR,5s,6aS)-2-((tetrahydro-2H-pyran-4-yl)methyl-d2)octahydrocyclopenta[c]pyrrol-5-yl)amino)pyridazin-3-yl)phenyl)acetamide-2,2,2-d3] | 3% | 13 nM | –
CCNC(=O)c1cccc(-c2ccc(N[C@H]3C[C@@H]4CN(CC5CCOCC5)C[C@@H]4C3)nn2)c1 [Compound A43, N-ethyl-3-(6-(((3aR,5s,6aS)-2-((tetrahydro-2H-pyran-4-yl)methyl)octahydrocyclopenta[c]pyrrol-5-yl)amino)pyridazin-3-yl)benzamide] | 4% | 13 nM | –
NC(=O)c1ccc(-c2ccc(N[C@H]3C[C@@H]4CN(CC5CCOCC5)C[C@@H]4C3)nn2)c(F)c1 [Compound A36, 3-fluoro-4-(6-(((3aR,5s,6aS)-2-((tetrahydro-2H-pyran-4-yl)methyl)octahydrocyclopenta[c]pyrrol-5-yl)amino)pyridazin-3-yl)benzamide] | 4% | 5.1 nM | –
O=C(Nc1cccc(-c2ccc(N[C@H]3C[C@@H]4CN(CC5CCOCC5)C[C@@H]4C3)nn2)c1)C1CC1 [Compound A30, N-(3-(6-(((3aR,5s,6aS)-2-((tetrahydro-2H-pyran-4-yl)methyl)octahydrocyclopenta[c]pyrrol-5-yl)amino)pyridazin-3-yl)phenyl)cyclopropanecarboxamide] | 3% | 13 nM | –
CCNC(=O)c1ccc(-c2ccc(N[C@H]3C[C@@H]4CN(CC5CCOCC5)C[C@@H]4C3)nn2)cc1 [Compound A51, N-ethyl-4-(6-(((3aR,5s,6aS)-2-((tetrahydro-2H-pyran-4-yl)methyl)octahydrocyclopenta[c]pyrrol-5-yl)amino)pyridazin-3-yl)benzamide] | 3% | 2.1 nM | –
CC(=O)Nc1ccc(-c2ccc(N[C@H]3C[C@@H]4CN(CC5(C)COC5)C[C@@H]4C3)nn2)cc1 [Compound A6, N-(4-(6-(((3aR,5s,6aS)-2-((3-methyloxetan-3-yl)methyl)octahydrocyclopenta[c]pyrrol-5-yl)amino)pyridazin-3-yl)phenyl)acetamide] | 16% | 4600 nM | –
CC(=O)Nc1ccc(-c2ccc(N[C@H]3C[C@@H]4CN(Cc5ccc(F)cc5)C[C@@H]4C3)nn2)cc1 [Compound A3, N-(4-(6-(((3aR,5s,6aS)-2-(4-fluorobenzyl)octahydrocyclopenta[c]pyrrol-5-yl)amino)pyridazin-3-yl)phenyl)acetamide] | 2% | 10 nM | –
[2H]C([2H])([C@@H]1CCCOC1)N1C[C@H]2C[C@H](Nc3ccc(-c4cccc(C(=O)NC)c4)nn3)C[C@H]2C1 [Compound A79, N-methyl-3-(6-(((3aR,5s,6aS)-2-(((S)-tetrahydro-2H-pyran-3-yl)methyl-d2)octahydrocyclopenta[c]pyrrol-5-yl)amino)pyridazin-3-yl)benzamide] | 5% | 92 nM | –
[2H]C([2H])([2H])NC(=O)c1ccccc1-c1ccc(N[C@H]2C[C@@H]3CN(CC4CCOCC4)C[C@@H]3C2)nn1 [Compound A60, N-(methyl-d3)-2-(6-(((3aR,5s,6aS)-2-((tetrahydro-2H-pyran-4-yl)methyl)octahydrocyclopenta[c]pyrrol-5-yl)amino)pyridazin-3-yl)benzamide] | 6% | 210 nM | –
O=C(NC1CC1)c1cccc(-c2ccc(N[C@H]3C[C@@H]4CN(CC5CCOCC5)C[C@@H]4C3)nn2)c1 [Compound A28, N-cyclopropyl-3-(6-(((3aR,5s,6aS)-2-((tetrahydro-2H-pyran-4-yl)methyl)octahydrocyclopenta[c]pyrrol-5-yl)amino)pyridazin-3-yl)benzamide] | 3% | 25 nM | –
[2H]C([2H])(C1CCOCC1)N1C[C@H]2C[C@H](Nc3ccc(-c4ccc(C(=O)NC)c(F)c4)nn3)C[C@H]2C1 [Compound A70, 2-fluoro-N-methyl-4-(6-(((3aR,5s,6aS)-2-((tetrahydro-2H-pyran-4-yl)methyl-d2)octahydrocyclopenta[c]pyrrol-5-yl)amino)pyridazin-3-yl)benzamide] | 4% | 4.7 nM | –
O=C(NC12CC(C1)C2)c1cc(F)c(F)c(-c2ccc(N[C@H]3C[C@@H]4CN(CC5CCOCC5)C[C@@H]4C3)nn2)c1 [Compound A18, N-(Bicyclo[1.1.1]pentan-1-yl)-3,4-difluoro-5-(6-(((3aR,5s,6aS)-2-((tetrahydro-2H-pyran-4-yl)methyl)octahydrocyclopenta[c]pyrrol-5-yl)amino)pyridazin-3-yl)benzamide] | – | 27 nM | 3%
[2H]C([2H])([C@H]1CCCOC1)N1C[C@H]2C[C@H](Nc3ccc(-c4cc(F)cc(C(=O)NC)c4)nn3)C[C@H]2C1 [Compound A84, 3-fluoro-N-methyl-5-(6-(((3aR,5s,6aS)-2-(((R)-tetrahydro-2H-pyran-3-yl)methyl-d2)octahydrocyclopenta[c]pyrrol-5-yl)amino)pyridazin-3-yl)benzamide] | 6% | 340 nM | –
[2H]C([2H])(C1CCOCC1)N1C[C@H]2C[C@H](Nc3ccc(-c4cc(F)c(C(N)=O)c(F)c4F)nn3)C[C@H]2C1 [Compound A65, 2,3,6-trifluoro-4-(6-(((3aR,5s,6aS)-2-((tetrahydro-2H-pyran-4-yl)methyl-d2)octahydrocyclopenta[c]pyrrol-5-yl)amino)pyridazin-3-yl)benzamide] | 5% | 6.3 nM | –
[2H]C1([2H])CC(C([2H])([2H])N2C[C@H]3C[C@H](Nc4ccc(-c5cc(F)cc(C(=O)NC)c5)nn4)C[C@H]3C2)CC([2H])([2H])O1 [Compound A82, 3-fluoro-N-methyl-5-(6-(((3aR,5s,6aS)-2-((tetrahydro-2H-pyran-4-yl-2,2,6,6-d4)methyl-d2)octahydrocyclopenta[c]pyrrol-5-yl)amino)pyridazin-3-yl)benzamide] | 5% | 29 nM | –
[2H]C([2H])(C1CCOCC1)N1C[C@H]2C[C@H](Nc3ccc(-c4cc(F)c(C(=O)N(C)C)c(F)c4F)nn3)C[C@H]2C1 [Compound A67, 2,3,6-Trifluoro-N,N-dimethyl-4-(6-(((3aR,5s,6aS)-2-((tetrahydro-2H-pyran-4-yl)methyl-d2)octahydrocyclopenta[c]pyrrol-5-yl)amino)pyridazin-3-yl)benzamide] | – | 11 nM | 4%
